SMILES strings stand for the structures. Some results are limits rather than exact numbers.

One assay deals with SRC (Homo sapiens, UniProt P12931). The assay is described as follows: SRC Biochemical Assay Protocol (microfluidic mobility shift assay, FLPeptide4 substrate).
Chain of SRC (P12931 whole entry, species assumed): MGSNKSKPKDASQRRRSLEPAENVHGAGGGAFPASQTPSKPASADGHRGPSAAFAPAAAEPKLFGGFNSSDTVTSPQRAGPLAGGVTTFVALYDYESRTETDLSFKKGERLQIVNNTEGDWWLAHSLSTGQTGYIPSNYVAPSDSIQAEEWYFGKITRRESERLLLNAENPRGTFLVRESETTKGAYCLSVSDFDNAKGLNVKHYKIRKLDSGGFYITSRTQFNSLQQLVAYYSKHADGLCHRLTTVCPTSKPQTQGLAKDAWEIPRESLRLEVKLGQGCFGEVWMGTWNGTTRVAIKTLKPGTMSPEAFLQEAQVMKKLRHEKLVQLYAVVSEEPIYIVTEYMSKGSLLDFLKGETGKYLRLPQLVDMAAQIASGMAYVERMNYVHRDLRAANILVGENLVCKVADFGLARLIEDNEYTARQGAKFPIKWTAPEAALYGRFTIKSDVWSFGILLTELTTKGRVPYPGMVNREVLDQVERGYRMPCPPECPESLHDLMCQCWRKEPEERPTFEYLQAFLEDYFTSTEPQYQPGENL
Settings: not given
The procedure:
SRC Biochemical Assay Protocol
Src biochemical kinase activity was measured using a surrogate fluorescent peptide substrate [FLPeptide4; 5-FAM-EGIYGVLFKKK-CONH2 (PerkinElmer Cat. No. 760348)] with a microfluidic mobility shift assay. Reactions were performed in 384-well flat bottom polystyrene microplates (Corning Cat. No. 3570) at a final volume of 20 μL in 50 mM HEPES pH 7.4, 1 mM EGTA, 10 mM MgCl2, 0.01% Brij-35, 2 mM DTT, 0.05% BSA, 1% DMSO. Inhibition experiments were performed with compounds of the invention varying from 0.0017-100 μM with 0.26 nM SRC, 1.5 μM FLPeptide4, and 50 μM ATP. Specifically, 15 μl 1.3× mixtures of SRC+FLPeptide4+compounds were preincubated for 30 minutes at room temperature followed by addition of 5 μL 4×ATP. Reactions were carried out for 90 minutes then quenched with 40 μl 500 mM EDTA. Phosphorylated peptide product was measured with a mobility shift assay using a LabChip® EZ Reader system (PerkinElmer Cat. No. 122919). Inhibition ratios were calculated relative to neutral controls and IC50 values were obtained from dose response data fitted to a 4-parameter logistic model.
Usually IC50 stands for the concentration that inhibits the measured activity by half. On to `CC(C)n1c(C#CC2CCN(S(C)(=O)=O)CC2)c(-c2ccc(Oc3ccccc3)cc2)c2c(N)ncnc21` [II-140, 7-isopropyl-6-((1-(methylsulfonyl)piperidin-4-yl)ethynyl)-5-(4-phenoxyphenyl)-7H-pyrrolo[2,3-d]pyrimidin-4-amine], for which the IC50 was in the range of 0.01 to 1 µM.

As to `CC(C)n1c(C#CC2CCN(C(=O)CCl)CC2)c(-c2ccc(Oc3ccccc3)cc2)c2c(N)ncnc21` [Example I-29], the IC50 lay within 0.01 to 1 µM. `COCCN(C)C/C=C/C(=O)N1C[C@@H]2[C@@H](C#Cc3c(-c4ccc(Oc5ccccn5)c(OC)c4)c4c(N)ncnc4n3C)[C@@H]2C1` [II-231, (E)-1-((1R,5S,6s)-6-((4-amino-5-(3-methoxy-4-(pyridin-2-yloxy)phenyl)-7-methyl-7H-pyrrolo[2,3-d]pyrimidin-6-yl)ethynyl)-3-azabicyclo[3.1.0]hexan-3-yl)-4-((2-methoxyethyl) (methyl)amino) but-2-en-1-one]: the concentration for half-maximal inhibition (IC50) is 0.01 to 1 µM. Take `C=CC(=O)N1CCC(C#Cc2c(-c3ccc(Oc4ccccc4)cc3)c3c(N)ncnc3n2C(C)c2ncon2)CC1` (stereo not drawn) [Example I-59]: the IC50 was in the range of 0.01 to 1 µM. As for `C=CC(=O)N1CCC(C#Cc2c(-c3ccc(Oc4ncccn4)cc3)c3c(N)ncnc3n2C(C)C)CC1` [Example I-15], the IC50 fell in the range of 0.01 to 1 µM.

Turning to `C=CC(=O)NC1CCN(C2CC(C#Cc3c(-c4ccc(Oc5ccccc5)cc4)c4c(N)ncnc4n3C)C2)CC1` (stereo not drawn) [III-51], the IC50 was 0.01 to 1 µM. The same measure, in the same setting: to `C=CC(=O)N1CCC(O)(C#Cc2c(-c3ccc(Oc4ccccc4)c(C#N)c3)c3c(N)ncnc3n2C)CC1` [III-54] belongs 1 to 10 µM; to `C=CC(=O)N1CCC(O)(C#Cc2c(-c3ccc(Oc4ccccc4)c(Cl)c3)c3c(N)ncnc3n2C)CC1` [III-59], 0.01 to 1 µM; to `C=CC(=O)N1CCC(N2CC(C#Cc3c(-c4ccc(Oc5ccccc5)cc4)c4c(N)ncnc4n3C)C2)C[C@@H]1C` (stereo partly drawn) [III-47], 0.01 to 1 µM. Take `CC(C(N)=O)N1CCC(C#Cc2c(-c3ccc(Oc4ccccc4)cc3)c3c(N)ncnc3n2C(C)C)CC1` (stereo not drawn) [II-150, 2-(4-((4-amino-7-isopropyl-5-(4-phenoxyphenyl)-7H-pyrrolo[2,3-d]pyrimidin-6-yl)ethynyl)piperidin-1-yl)propanamide]: the IC50 lay within 0.01 to 1 µM. Consider `Cn1c(C#CC2(O)CCN(C(=O)/C=C/CN3CCC3)CC2)c(-c2ccc(Oc3ccccc3)cc2)c2c(N)ncnc21` [III-50], for which the IC50 was in the range of 0.01 to 1 µM. As to `C=CC(=O)N1CC[C@H](C#Cc2c(-c3ccc(Oc4ccccc4)cc3)c3c(N)ncnc3n2C)C[C@@H]1C` [III-77], the IC50 is 0.01 to 1 µM. On to `C=CC(=O)N1CCC(C#Cc2c(-c3ccc(Oc4ccccc4)cc3)c3c(N)ncnc3n2[C@@H](C)CO)CC1` (single isomer, unassigned) [Example I-26], for which the IC50 is 0.01 to 1 µM. Same read-out and setting: to `C=CC(=O)N1CCC(C#Cc2c(-c3ccc(Oc4ccccc4)cc3)c3c(N)ncnc3n2C2CCOC2)C1` (stereo not drawn) [III-21] belongs 0.01 to 1 µM; to `CN(C)C/C=C/C(=O)N1CCC(C#Cc2c(-c3ccc(Oc4ccccc4)cc3)c3c(N)ncnc3n2C2CCOC2)CC1` (stereo not drawn) [III-10], 0.01 to 1 µM.

In the case of `C=CC(=O)N1CCC(C#Cc2c(-c3ccc(Oc4cccc(Cl)c4)cc3)c3c(N)ncnc3n2C(C)C)CC1` [Example I-36], the IC50 was 0.01 to 1 µM. For the molecule `C=CC(=O)N1CCC(N2CC(C#Cc3c(-c4ccc(Oc5cccc(C)n5)c(OC)c4)c4c(N)ncnc4n3C3CCOC3)C2)CC1` (stereo not drawn) [III-91], the IC50 lay in the range of 0.01 to 1 µM.

`C=CC(=O)N1CCC(C#Cc2c(-c3ccc(Nc4cccc(C)n4)cc3)c3c(N)ncnc3n2C(C)C)CC1` [Example I-22]: the IC50 fell in the range of 0.01 to 1 µM. In the case of `C=CC(=O)N1CCC(C#Cc2c(-c3ccc(C(C#N)c4ccccc4)cc3)c3c(N)ncnc3n2C(C)C)CC1` (stereo not drawn) [Example I-30], the IC50 lay in the range of 0.01 to 1 µM. Still for that read-out and setting: to `C=CC(=O)N1CCC(C#Cc2c(-c3ccc(Nc4ccccn4)cc3)c3c(N)ncnc3n2C(C)C)CC1` [Example I-9] belongs 0.01 to 1 µM; to `CC(Cl)C(=O)N1CCC(C#Cc2c(-c3ccc(Oc4ccccc4)cc3)c3c(N)ncnc3n2C(C)C)CC1` (stereo not drawn) [Example I-39], 0.01 to 1 µM; to `C=CC(=O)N1CCC(N2CC(C#Cc3c(-c4ccc(Oc5ccccc5)cc4)c4c(N)ncnc4n3[C@H]3C[C@@H](O)C3)C2)CC1` [III-70], ≤ 0.01 µM. In the case of `C=CC(=O)N1CCC(C#Cc2c(-c3ccc(Oc4ccccn4)cc3)c3c(N)ncnc3n2C(C)C)CC1` [Example I-12], the IC50 lay within 0.01 to 1 µM.

As to `C=CC(=O)N1CCCC(N2CC(C#Cc3c(-c4ccc(Oc5ccccc5)cc4)c4c(N)ncnc4n3C)C2)CC1` (stereo not drawn) [III-56], the IC50 is 0.01 to 1 µM.

Take `CCC(=O)N1CC(N2CCC(C#Cc3c(-c4ccc(Oc5ccccc5)cc4)c4c(N)ncnc4n3C(C)C)CC2)C1` [II-158, 1-(3-(4-((4-amino-7-isopropyl-5-(4-phenoxyphenyl)-7H-pyrrolo[2,3-d]pyrimidin-6-yl)ethynyl)piperidin-1-yl)azetidin-1-yl)propan-1-one]: the IC50 was in the range of 0.01 to 1 µM. Take `CC#CC(=O)N1CCC(C#Cc2c(-c3ccc(Oc4ccccc4)cc3)c3c(N)ncnc3n2C(C)C)CC1` [Example I-18]: the IC50 was in the range of 0.01 to 1 µM. `Cn1c(C#CC2CN(C(=O)/C=C/CN3CC(O)C3)C2)c(-c2ccc(Oc3ccccc3)cc2)c2c(N)ncnc21` [III-78]: the IC50 was in the range of 0.01 to 1 µM. Take `C=CS(=O)(=O)NC1CCC(C#Cc2c(-c3ccc(Oc4ccccc4)cc3)c3c(N)ncnc3n2C(C)C)CC1` (stereo not drawn) [Example I-43]: the IC50 is ≤ 0.01 µM. For the molecule `C=CC(=O)N1CCC(C#Cc2c(-c3ccc(Oc4ccccc4)cc3)c3c(N)ncnc3n2C)C1` (stereo not drawn) [III-11], the 50% inhibitory concentration (IC50) lay in the range of 0.01 to 1 µM.

For the molecule `CN(C)C/C=C/C(=O)Nc1ncnc2c1c(-c1ccc(Oc3ccccc3)cc1)c(C#CC1CNC1)n2C1CCOC1` (stereo not drawn) [III-9], the IC50 lay within 0.01 to 1 µM.

In the case of `CN(C)C/C=C/C(=O)N1CCC(C#Cc2c(-c3ccc(Oc4ccccc4)cc3)c3c(N)ncnc3n2C)CC1` [III-14], the IC50 lay within 0.01 to 1 µM. On the same count and under the same terms, to `C#Cc1c(-c2ccc(Oc3ccccc3)cc2)c2c(N)ncnc2n1C(C)C` [III-6] belongs 0.01 to 1 µM; to `C=CC(=O)N1CCC(N2CC(C#Cc3c(-c4ccc(Oc5ccccc5)cc4)c4c(N)ncnc4n3C(C)CO)C2)CC1` (stereo not drawn) [III-60], 0.01 to 1 µM; to `CC(C(=O)O)N1CCC(C#Cc2c(-c3ccc(Oc4ccccc4)cc3)c3c(N)ncnc3n2C(C)C)CC1` (stereo not drawn) [II-149, 2-(4-((4-amino-7-isopropyl-5-(4-phenoxyphenyl)-7H-pyrrolo[2,3-d]pyrimidin-6-yl)ethynyl)piperidin-1-yl)propanoic acid], ≤ 0.01 µM. Take `C=CC(=O)N1CCC(N2CC(C#Cc3c(-c4ccc(Oc5ccccn5)c(OC)c4)c4c(N)ncnc4n3C)C2)C(S(C)(=O)=O)C1` (stereo not drawn) [III-87]: the IC50 lay within 0.01 to 1 µM. Take `C=CC(=O)N1CCC(C#Cc2c(-c3ccc(Oc4ccccc4)nc3)c3c(N)ncnc3n2C(C)C)CC1` [Example I-10]: the IC50 was 0.01 to 1 µM. The same measure, in the same setting: to `CN(C)C/C=C/C(=O)N1CCC(C#Cc2c(-c3ccc(Oc4ccccc4)cc3)c3c(N)ncnc3n2C2CCOC2)C1` (stereo not drawn) [III-18] belongs 0.01 to 1 µM; to `Cn1c(C#CC2CC3(C2)CN(C(=O)/C=C/CN2CCOCC2)C3)c(-c2ccc(Oc3ccccc3)cc2)c2c(N)ncnc21` [III-71], 0.01 to 1 µM.

For another assay, the system named is RBE cells. Nature of the assay: Cell Viability Protocol (CellTiterGlo), RBE cells. It is filed as cell-based. Conditions: RBE or SNU-1079 cells, 72 or 120 hour, cell line and time not given. The procedure: RBE or SNU-1079 cells were cultured in T-75 or T-175 flasks at 37° C., 5% CO2, 95% relative humidity in RPMI 1640 medium with 10% FBS and 1% Penicillin/Streptomycin (media) and detached with 0.25% trypsin/EDTA at 80-90% confluency. Cells were then seeded in 40 μL media per well in 384-well flat-bottom polystyrene microplates (Corning Cat. No. 3570) at a seeding density of 1200 cells/well and incubated for 24 hours at 37° C. with 5% CO2, 95% relative humidity. On the next day, test compounds were prepared in 10 mM DMSO stock solution and diluted to the indicated concentrations in a 384-well compound source plate. DMSO was employed as a vehicle control. Compounds (40 nL) were transferred to 384-well cell culture plate(s) using the liquid handler Echo550. Plates were incubated at 37° C. with 5% CO2 for 72 hour or 120 hour (as indicated). CellTiterGlo reagent was warmed to 37° C. and added into each well (40 μL per well). Plates were incubated at room temperature for 30 min followed by reading on the EnSpire or EnVision plate reader. Relative viability (% remaining activity) was calculated relative to DMSO control and IC50 values were obtained from dose-response data fitted to a 4-parameter curve.
As to `CC(C)n1c(C#CC2CCN(S(C)(=O)=O)CC2)c(-c2ccc(Oc3ccccc3)cc2)c2c(N)ncnc21` [II-140, 7-isopropyl-6-((1-(methylsulfonyl)piperidin-4-yl)ethynyl)-5-(4-phenoxyphenyl)-7H-pyrrolo[2,3-d]pyrimidin-4-amine], the IC50 was in the range of 0.01 to 1 µM.

With `CC(C)n1c(C#CC2CCN(C(=O)CCl)CC2)c(-c2ccc(Oc3ccccc3)cc2)c2c(N)ncnc21` [Example I-29], the IC50 is 0.01 to 1 µM.

`COCCN(C)C/C=C/C(=O)N1C[C@@H]2[C@@H](C#Cc3c(-c4ccc(Oc5ccccn5)c(OC)c4)c4c(N)ncnc4n3C)[C@@H]2C1` [II-231, (E)-1-((1R,5S,6s)-6-((4-amino-5-(3-methoxy-4-(pyridin-2-yloxy)phenyl)-7-methyl-7H-pyrrolo[2,3-d]pyrimidin-6-yl)ethynyl)-3-azabicyclo[3.1.0]hexan-3-yl)-4-((2-methoxyethyl) (methyl)amino) but-2-en-1-one] displayed an IC50 of 0.01 to 1 µM. In turn, `C=CC(=O)N1CCC(C#Cc2c(-c3ccc(Oc4ccccc4)cc3)c3c(N)ncnc3n2C(C)c2ncon2)CC1` (stereo not drawn) [Example I-59] returned an IC50 of 0.01 to 1 µM.

For the origin of these results see US20250154154A1 (Relay Binney Street, 2nd Floor, priority 2020, published 2025).
